Test results: patent publication US20080051285A1 (priority 2004, published 2008)
Read-outs that look alike come from different tables or passages of the source.

Test system: Pyricularia oryzae
Assay type: in vivo
Conditions: individual active compound, protective, inoculated next day, assessed after 6 days

Structure (SMILES): CC1CCN(c2c(-c3c(F)cccc3Cl)c(Cl)nc3ncnn23)CC1 [A]
- Efficacy in % of the untreated control (1 ppm in the spray liquor): 0%
- Efficacy in % of the untreated control (4 ppm in the spray liquor): 13%

Structure (SMILES): C=CC1(C)OC(=O)N(c2cc(Cl)cc(Cl)c2)C1=O (centres unmarked) [compound II, 3-(3,5-dichlorophenyl)-5-methyl-5-vinyloxazolidine-2,4-dione]
- Efficacy in % of the untreated control (1 ppm in the spray liquor): 0%
- Efficacy in % of the untreated control (4 ppm in the spray liquor): 0%

Structure (SMILES): C[C@H](Nc1c(-c2c(F)cc(F)cc2F)c(Cl)nc2ncnn12)C(F)(F)F [B]
- Efficacy in % of the untreated control (1 ppm in the spray liquor): 13%
- Efficacy in % of the untreated control (4 ppm in the spray liquor): 57%

Structure (SMILES): CC1CCN(c2c(-c3c(F)cc(F)cc3F)c(Cl)nc3ncnn23)CC1 [compound I, 5-chloro-7-(4-methylpiperidin-1-yl)-6-(2,4,6-trifluorophenyl)-[1,2,4]tri-azolo[1,5-a]pyrimidine]
- Efficacy in % of the untreated control (1 ppm in the spray liquor): 13%
- Efficacy in % of the untreated control (4 ppm in the spray liquor): 28%
